Results: article PMC6099493, “Discovery of Matrinic Thiadiazole Derivatives as a Novel Family of Anti-Liver Fibrosis Agents via Repression of the TGFβ/Smad Pathway” (Molecules : A Journal of Synthetic Chemistry and Natural …, 2018)
Structures can show the parent of a compound that is named as a salt.

Columns and labels:
[1] = tested on: COL1A1 promotor; assay: COL1A1 promotor single luciferase reporter gene model in LX-2 (LX2-COL) cells; type: cell-based, human; details: LX-2 cells treated simultaneously with TGFβ1 and compound; for inhibition at 40 µM: Homo sapiens, read-out: Inhibition Percentage (inhibition rate of COL1A1 promotor's activity in LX2 cells)
[2] = MTT cytotoxicity / cell survival assay; type: cell-based; details: human, HepG2 cells, read-out: CC50 (cytotoxic concentration required to inhibit HepG2 cell growth by 50%)
Experimental: A single luciferase reporter gene detection model was applied to screen the inhibitory effects towards COL1A1 promotor of all target compounds in human hepatic stellate LX-2 cells at the concentration of 40 μM, taking EGCG and compound 1 as the positive controls. The LX2-COL monoclone cell line was treated simultaneously with TGFβ1 and a target compound [13]. The cytotoxicity was determined using MTT assay in HepG2 cells.
The cell survival was evaluated by MTT assay. HepG2 cells were seeded at density of 6 × 10^3 cells/well in 96-well plate. Cells were treated with various concentrations of matrinic derivate until the cells at 50% confluence. After 24 h of incubation, 20 µL of the MTT (5 mg/mL) solution was added into each plate and incubated for 4 h at 37 °C, 5% CO2. Subsequently, the culture supernatant was replaced with 150 µL DMSO to dissolve the formazan crystal. The absorbance at 570 nm was measured using a microplate reader (ELx800, BioTek Instruments, Winooski, VT, USA).

Row | SMILES | melting point | inhibition at 40 µM [1] | CC50 at 24 h [2] | Inhibition Percentage (inhibition rate of COL1A1 promotor's activity in LX2 cells) ([1]; 40 μM)
1 | O=C(O)CCCC1C2CCCN3CCCC(CN1S(=O)(=O)c1ccc(C(F)(F)F)cc1)C23 (stereo not drawn) [Compound 5a] |  | -3.7% |  | 
2 | O=C(O)CCCC1C2CCCN3CCCC(CN1Cc1ccccc1)C23 (stereo not drawn) [Compound 5b, 12-N-Benzyl matrinic acid] | 95 to 96 °C | -33.6% |  | 
3 | Cc1ccc(CN2CC3CCCN4CCCC(C2CCCC(=O)O)C34)cc1 (stereo not drawn) [Compound 5c, 12-N-p-Methylbenzyl matrinic acid] | 106 to 108 °C | -116% |  | 
4 | O=C(O)CCCC1C2CCCN3CCCC(CN1Cc1ccc(Br)cc1)C23 (stereo not drawn) [Compound 5d, 12-N-p-Bromobenzyl matrinic acid] | 134 to 135 °C | 6.4% |  | 
5 | Cc1ccc(S(=O)(=O)N2CC3CCCN4CCCC(C34)C2CCCc2nnc(N)s2)cc1 (stereo not drawn) [Compound 6a, 12-N-p-Methlybenzenesulfonyl-3′-(5-amino-1,3,4-thiadiazol-2-yl)-matrinic propane] | 237 °C (dec.) | 21.2% | > 320 µM | 
6 | CNc1nnc(CCCC2C3CCCN4CCCC(CN2S(=O)(=O)c2ccc(C)cc2)C34)s1 (stereo not drawn) [Compound 6b, 12-N-p-Mmethlybenzenesulfonyl-3′-(N-methyl-5-amino-1,3,4-thiadiazol-2-yl)-matrinic propane] | 169 to 170 °C | 12.8% |  | 
7 | CN(C)c1nnc(CCCC2C3CCCN4CCCC(CN2Cc2ccccc2)C34)s1 (stereo not drawn) [Compound 6k, 12-N-Benzyl-3′-(N,N-dimethyl-5-amino-1,3,4-thiadiazol-2-yl)-matrinic propane hydrochloride] |  | 15.2% |  | 
8 | O=C(O[C@@H]1Cc2c(O)cc(O)cc2O[C@@H]1c1cc(O)c(O)c(O)c1)c1cc(O)c(O)c(O)c1 [EGCG, epigallocatechin gallate, reference compound] |  |  |  | 27.5% ± 7.9%

Now from value to compound, other results behind:

Row | melting point | SMILES | inhibition at 40 µM [1] | CC50 at 24 h [2] | Inhibition Percentage (inhibition rate of COL1A1 promotor's activity in LX2 cells) ([1]; 40 μM)
9 | 189 to 190 °C | CN(C)c1nnc(CCCC2C3CCCN4CCCC(CN2Cc2ccccc2)C34)s1 (stereo not drawn) (as salt: hydrochloride) [Compound 6k, 12-N-Benzyl-3′-(N,N-dimethyl-5-amino-1,3,4-thiadiazol-2-yl)-matrinic propane hydrochloride] |  |  | 
10 | 193 to 194 °C | Cc1ccc(S(=O)(=O)N2CC3CCCN4CCCC(C34)C2CCCc2nnc(NC(C)C)s2)cc1 (stereo not drawn) [Compound 6c, 12-N-p-Methylbenzenesulfonyl-3′-(N-iso-propyl-5-amino-1,3,4-thiadiazol-2-yl)-matrinic propane] | -84.2% |  | 
11 | 142 to 143 °C | Cc1ccc(S(=O)(=O)N2CC3CCCN4CCCC(C34)C2CCCc2nnc(N(C)C)s2)cc1 (stereo not drawn) [Compound 6d, 12-N-p-Methylbenzenesulfonyl-3′-(N,N-dimethyl-5-amino-1,3,4-thiadiazol-2-yl)-matrinic propane] | -36.7% |  | 
12 | 206 °C (dec.) | Nc1nnc(CCCC2C3CCCN4CCCC(CN2S(=O)(=O)c2ccc(C(F)(F)F)cc2)C34)s1 (stereo not drawn) [Compound 6f, 12-N-p-Ttrifluoromethlybenzenesulfonyl-3′-(5-amino-1,3,4-thiadiazol-2-yl)-matrinic propane] | -19% |  | 
13 | 181 °C (dec.) | CNc1nnc(CCCC2C3CCCN4CCCC(CN2S(=O)(=O)c2ccc(C(F)(F)F)cc2)C34)s1 (stereo not drawn) [Compound 6g, 12-N-p-Trifluoromethlybenzenesulfonyl-3′-(N-methyl-5-amino-1,3,4-thiadiazol-2-yl)-matrinic propane] | 6.1% |  | 
14 | 147 to 148 °C | CN(C)c1nnc(CCCC2C3CCCN4CCCC(CN2S(=O)(=O)c2ccc(C(F)(F)F)cc2)C34)s1 (stereo not drawn) [Compound 6h, 12-N-p-Trifluoromethlybenzenesulfonyl-3′-(N,N-dimethyl-5-amino-1,3,4-thiadiazol-2-yl)-matrinic propane] | -35.2% |  | 
15 | 137 to 138 °C | CNc1nnc(CCCC2C3CCCN4CCCC(CN2Cc2ccccc2)C34)s1 (stereo not drawn) [Compound 6j, 12-N-Benzyl-3′-(N-methyl-5-amino-1,3,4-thiadiazol-2-yl)-matrinic propane] | 29.5% |  | 
16 | 163 to 164 °C | CNc1nnc(CCCC2C3CCCN4CCCC(CN2Cc2ccc(C)cc2)C34)s1 (stereo not drawn) [Compound 6m, 12-N-p-Methylbenzyl-3′-(N-methyl-5-amino-1,3,4-thiadiazol-2-yl)-matrinic propane] | -29.6% |  | 
17 | 193 to 194 °C | Nc1nnc(CCCC2C3CCCN4CCCC(CN2Cc2ccc(Br)cc2)C34)s1 (stereo not drawn) [Compound 6o, 12-N-p-Bromobenzyl-3′-(5-amino-1,3,4-thiadiazol-2-yl)-matrinic propane] | 7.8% |  | 
18 | 273 °C (dec.) | CC(=O)Nc1nnc(CCCC2C3CCCN4CCCC(CN2S(=O)(=O)c2ccc(C)cc2)C34)s1 (stereo not drawn) [Compound 7a, 12-N-p-Methylblenzenesulfonyl-3′-(5-acetylamino-1,3,4-thiadiazol-2-yl)-matrinic propane] | 33.9% |  | 
19 | 197 °C (dec.) | CC(=O)Nc1nnc(CCCC2C3CCCN4CCCC(CN2S(=O)(=O)c2ccc(C(F)(F)F)cc2)C34)s1 (stereo not drawn) [Compound 7b, 12-N-p-Trifluoromethlybenzenesulfonyl-3′-(5-acetylamino-1,3,4-thiadiazol-2-yl)-matrinic propane] | -6% |  | 
20 | 188 to 189 °C | CC(=O)Nc1nnc(CCCC2C3CCCN4CCCC(CN2Cc2ccccc2)C34)s1 (stereo not drawn) [Compound 7c, 12-N-Benzyl-3′-(5-acetylamino-1,3,4-thiadiazol-2-yl)-matrinic propane] | 12.9% |  | 
21 | 226 °C (dec.) | CC(=O)Nc1nnc(CCCC2C3CCCN4CCCC(CN2Cc2ccc(C)cc2)C34)s1 (stereo not drawn) [Compound 7d, 12-N-p-Methylbenzyl-3′-(5-acetylamino-1,3,4-thiadiazol-2-yl)-matrinic propane] | 27% |  | 
